According to patent publication US20220305001A1, “METHODS OF TREATING ACUTE MYELOID LEUKEMIA WITH FARNESYLTRANSFERASE INHIBITORS” (Kura Oncology, Inc., priority 2019, published 2022):

Assays:
[1] = tested on: AML; experiment: Tipifarnib treatment of relapsed or refractory AML patients, survival analysed by mRNA expression of FLT3LG/CXCR4; type: in vivo, human
Procedure: (§1) Previous clinical studies with tipifarnib were performed in newly diagnosed AML in elderly patients with poor risk AML or relapsed and refractory AML. In these studies, patient selection was not based on genetic markers. Anecdotal evidence of tipifarnib single agent activity was reported.

[2] = tested on: AML; experiment: Tipifarnib treatment of previously untreated elderly or unfit AML patients, survival analysed by mRNA expression of FLT3LG/CXCR4; type: in vivo, human
Procedure: as §1

[3] = first three quartiles of FLT3LG expression
[4] = highest FLT3LG tertile and highest CXCR4 tertile (N=10)
[5] = highest quintile of FLT3LG expression
[6] = rest of patients with either lower FLT3LG or lower CXCR4 expression (N=47)
[7] = highest FLT3LG expression tertile
[8] = second FLT3LG expression tertile
[9] = third tertile (lowest level of FLT3LG expression)

Cn1cncc1[C@@](N)(c1ccc(Cl)cc1)c1ccc2c(c1)c(-c1cccc(Cl)c1)cc(=O)n2C [tipifarnib]
median overall survival (mOS) [1, 3]: 54 to 83 days
median progression free survival (mPFS) [1, 3]: 28 to 29 days
median overall survival (mOS) [1, 4]: 234 days
median progression free survival (mPFS) [1, 4]: 148 days
median overall survival (mOS) [1, 5]: 234 days
median progression free survival (mPFS) [1, 5]: 119 days
median overall survival (mOS) [1, 6]: 84 days
median progression free survival (mPFS) [1, 6]: 29 days
median overall survival (mOS) [2, 7]: 548 days
median progression free survival (mPFS) [2, 7]: 247 days
median overall survival (mOS) [2, 8]: 153 days
median progression free survival (mPFS) [2, 8]: 64 days
median overall survival (mOS) [2, 9]: 76 days
median progression free survival (mPFS) [2, 9]: 35 days
